# Laboratory results from patent US11090307B2, “Treating male senescence” (National Institute of Biological Sciences, Beijing, priority 2017, dated 2021).
# Experiments:
# [1] = test system: phospho-MLKL in the testes; test: TSZ-induced necroptosis in testes of mice fed RIPA-56-containing chow; type: in vivo
# Method: We therefore evaluated the effects of a newly-identified, highly-potent, and highly-specific RIP1 kinase inhibitor from our laboratory (henceforth ‘RIPA-56’)(Ren et al., 2017) by incorporating it into mouse food at 150 mg/kg and 300 mg/kg doses. We first tested the effect of RIPA-56 on necroptosis in testes by injecting TSZ into testes of 2-month old mice after feeding the mice with increasing concentrations of RIPA-56-containing chow for one week.
# [2] = test system: 13-month old male wild type mice; test: Long-term feeding of 13-month old male wild type mice with RIPA-56 chow for two months; type: in vivo
# Method: We subsequently chose the 300 mg/kg dose to continuously feed 13-month old male wild type mice for two months to study the long-term effects of blocking necroptosis on testes. […] Additionally, the testosterone level of RIPA-56-treated mice remained high, while that of control mice decreased. […] Finally, the fertility rates of the RIPA-56-treated mice were much higher than those of control mice with 19 out of 25 mice on the RIPA-56 diet were fertile while only 6 out of 23 mice on normal diet produced progeny.
smiles,measurement,setting,value
CCC(C)(C)C(=O)N(O)Cc1ccccc1 [RIPA-56],block of necroptosis in testes,"[1]; 300 mg/kg dose in chow, one week, TSZ into testes",completely block necroptosis
same,appearance of TSZ-induced phospho-MLKL in the testes,"[1]; 2-month old mice, chow with increasing concentrations (150 mg/kg and 300 mg/kg) for one week, then TSZ into testes",blocked the appearance of TSZ-induced phospho-MLKL in the testes in a dose-dependent manner
same,empty seminiferous tubules,"[2]; 300 mg/kg in food, two months",hardly any seminiferous vesicles were empty
same,fertility rate (fertile mice),"[2]; 300 mg/kg in food, two months",19 out of 25
same,"gross male aging metrics (body weight, fat deposition, libido, fertility, muscle mass, prostate hyperplasia)","[2]; 300 mg/kg in food, two months",more youthful gross male aging metrics
same,mass of seminal vesicles,"[2]; 300 mg/kg in food, two months","around 1,000 milligrams"
same,testosterone level,"[2]; 300 mg/kg in food, two months",remained high
same,body weight,"[2]; 300 mg/kg in food, two months, vs control chow diet",weighed less than mice fed with control chow diet
same,age-associated weight gain,[2]; necroptosis blocked pharmaceutically,much less age-associated wright gain
